Common to all, as to format: cell-based
The test system of one test is Lovo (G13D) cells. In words: Cell viability assay (CELLTITER-GLO), Lovo cells. The following applies: Homo sapiens, 72 h, 3 days at 37° C., CELLTITER-GLO luminescence, read-out: Inhibition of Cancerous Cells IC50 (μM) Lovo (G13D). The protocol: (§1) AsPC-1, 1358, and SW48 cells were cultured in RPMI 1640 media supplemented with 10% fetal bovine serum, streptomycin, and penicillin. Lovo and SW480 cells were cultured in DMEM media supplemented with 10% fetal bovine serum, streptomycin, and penicillin. The cell lines were plated in their respective medium supplemented with 2.5% fetal bovine serum, streptomycin, and penicillin. All cell lines were plated in white walled 96-well plates at 2,000 cells/well or 384-well plates at 500 cells/well, except Lovo, which were plated at 4,000 or 1,000 cells/well, respectively. The cells were incubated in DMSO (control) or a compound for 3 days at 37° C. under 5% CO2. A CELLTITER-GLO® reagent (100 μL) was then added to each well. After a 10 min incubation with shaking, luminescence was measured using an ENVISION® multimode plate reader.
On the technique in general: In ATP-based viability assays light output follows the ATP content of the culture.

A further test relates to SW480 (G12V) cells. Nature of the test: Cell viability assay (CELLTITER-GLO), SW480 cells. The following applies: Homo sapiens, 72 h, 3 days at 37° C., CELLTITER-GLO luminescence, read-out: Inhibition of Cancerous Cells IC50 (μM) SW480 (G12V). As for the experimental part: as §1
For a further test, the system named is SW48 (wt) cells. In words: Cell viability assay (CELLTITER-GLO), SW48 cells. As to conditions: Homo sapiens, 72 h, 3 days at 37° C., CELLTITER-GLO luminescence, read-out: Inhibition of Cancerous Cells IC50 (μM) SW48 (wt). As for the experimental part:
as §1

The next test concerns H358 (G12C) cells. In words: Cell viability assay (CELLTITER-GLO), H358 cells. As to conditions: Homo sapiens, NCI-H358, 72 h, 3 days at 37° C., CELLTITER-GLO luminescence, read-out: Inhibition of Cancerous Cells IC50 (μM) H358 (G12C). The protocol: as §1
The next test concerns AsPC-1 (G12D) cells. Nature of the test: Cell viability assay (CELLTITER-GLO), AsPC-1 cells. The following applies: Homo sapiens, ASPC1, 72 h, 3 days at 37° C., CELLTITER-GLO luminescence, read-out: Inhibition of Cancerous Cells IC50 (μM) AsPC-1 (G12D). The protocol: as §1

Results on 15 compounds are retold here after US20240174643A1, “SOS1 PROTEIN DEGRADERS, PHARMACEUTICAL COMPOSITIONS THEREOF, AND THEIR THERAPEUTIC APPLICATIONS” (Bio TheryX, Inc., priority 2021, published 2024).

The term IC50 denotes the concentration that gives 50% inhibition. As to `COc1cc2c(N[C@H](C)c3cccc(Br)c3)nc(C)nc2cc1OCCCCCCCN1CCN(C(=O)CNc2cccc(C3CCC(=O)NC3=O)c2)CC1` (stereo partly drawn) [Compound B1, 3-(3-((2-(4-(7-((4-(((R)-1-(3-bromophenyl)ethyl)amino)-6-methoxy-2-methylquinazolin-7-yl)oxy)heptyl)piperazin-1-yl)-2-oxoethyl)amino)phenyl)piperidine-2,6-dione], the IC50 in the test with Lovo (G13D) cells turned out to be 0.34 µM; in the test with SW480 (G12V) cells, 0.66 µM; with SW48 (wt) cells it was 1.1 µM; in the test with H358 (G12C) cells, 1.1 µM.

Consider `COc1cc2c(N[C@H](C)c3cccc(Br)c3)nc(C)nc2cc1OCCCCCCCCCCCN1CCN(C(=O)CNc2cccc(C3CCC(=O)NC3=O)c2)CC1` (stereo partly drawn) [Compound B3, 3-(3-((2-(4-(11-((4-(((R)-1-(3-Bromophenyl)ethyl)amino)-6-methoxy-2-methyl-quinazolin-7-yl)oxy)undecyl)piperazin-1-yl)-2-oxoethyl)amino)phenyl)piperidine-2,6-dione], for which the half-inhibitory concentration (IC50) turned out to be 0.55 µM in the test on Lovo (G13D) cells, 0.48 µM in the test on SW480 (G12V) cells, 1.7 µM in the test with SW48 (wt) cells and 2.9 µM in the test with H358 (G12C) cells.

Consider `COc1cc2c(N[C@H](C)c3cccc(Br)c3)nc(C)nc2cc1OCCCCCCCN1CCN(C(=O)CNc2ccc(C3CCC(=O)NC3=O)cc2)CC1` (stereo partly drawn) [Compound B4, 3-(4-((2-(4-(7-((4-(((R)-1-(3-bromophenyl)ethyl)amino)-6-methoxy-2-methylquinazolin-7-yl)oxy)heptyl)piperazin-1-yl)-2-oxoethyl)amino)phenyl)piperidine-2,6-dione], for which the IC50 was 0.23 µM in the test with Lovo (G13D) cells, 0.49 µM in the test on SW480 (G12V) cells, 1.1 µM in the test with SW48 (wt) cells and 0.93 µM with H358 (G12C) cells.

Regarding `COc1cc2c(N[C@H](C)c3cccc(Br)c3)nc(C)nc2cc1OCCCCCCCCCN1CCN(C(=O)CNc2ccc(C3CCC(=O)NC3=O)cc2)CC1` (stereo partly drawn) [Compound B5, 3-(4-((2-(4-(9-((4-(((R)-1-(3-Bromophenyl)ethyl)amino)-6-methoxy-2-methyl-quinazolin-7-yl)oxy)nonyl)piperazin-1-yl)-2-oxoethyl)amino)phenyl)piperidine-2,6-dione], the IC50 in the test with Lovo (G13D) cells was determined as 0.19 µM; with SW480 (G12V) cells, 0.45 µM; with SW48 (wt) cells, 1.2 µM; in the test on H358 (G12C) cells, 2 µM.

In the case of `COc1cc2c(N[C@H](C)c3cccc(Br)c3)nc(C)nc2cc1OCCCCCCCCCCCN1CCN(C(=O)CNc2ccc(C3CCC(=O)NC3=O)cc2)CC1` (stereo partly drawn) [Compound B6, 3-(4-((2-(4-(11-((4-(((R)-1-(3-bromophenyl)ethyl)amino)-6-methoxy-2-methyl-quinazolin-7-yl)oxy)undecyl)piperazin-1-yl)-2-oxoethyl)amino)phenyl)piperidine-2,6-dione], the IC50 in the test with Lovo (G13D) cells worked out at 0.48 µM; in the test with SW480 (G12V) cells, 0.3 µM; in the test on SW48 (wt) cells it was 3.7 µM; in the test with H358 (G12C) cells it was 2.1 µM.

Take `COc1cc2c(N[C@H](C)c3cccc(Br)c3)nc(C)nc2cc1OCCCCCN1CCN(C(=O)CNc2ccc(C3CCC(=O)NC3=O)cc2)CC1` (stereo partly drawn) [Compound B8, 3-(4-((2-(4-(5-((4-(((R)-1-(3-Bromophenyl)ethyl)amino)-6-methoxy-2-methyl-quinazolin-7-yl)oxy)pentyl)piperazin-1-yl)-2-oxoethyl)amino)phenyl)piperidine-2,6-dione]: the IC50 in the test with Lovo (G13D) cells amounted to 1.3 µM; in the test on SW480 (G12V) cells, 1.1 µM; with SW48 (wt) cells it was 1.1 µM; in the test on H358 (G12C) cells, 1.7 µM; with AsPC-1 (G12D) cells it was 2.8 µM.

Consider `COc1cc2c(N[C@H](C)c3cccc(Br)c3)nc(C)nc2cc1OCCCCCCCN1CCN(C(=O)COc2ccc(N3CCC(=O)NC3=O)cc2)CC1` [Compound C1, (R)-1-(4-(2-(4-(7-((4-((1-(3-Bromophenyl)ethyl)amino)-6-methoxy-2-methyl-quinazolin-7-yl)oxy)heptyl)piperazin-1-yl)-2-oxoethoxy)phenyl)dihydropyrimidine-2,4(1H,3H)-dione], for which the IC50 in the test on Lovo (G13D) cells was 0.69 µM; in the test on SW480 (G12V) cells, 1.7 µM; with SW48 (wt) cells it was 2.2 µM; in the test with H358 (G12C) cells it was 1.9 µM; in the test with AsPC-1 (G12D) cells, 2.3 µM.

Turning to `COc1cc2c(N[C@H](C)c3cccc(Br)c3)nc(C)nc2cc1OCCCCCCCCCN1CCN(C(=O)COc2ccc(N3CCC(=O)NC3=O)cc2)CC1` [Compound C2, (R)-1-(4-(2-(4-(9-((4-((1-(3-Bromophenyl)ethyl)amino)-6-methoxy-2-methyl-quinazolin-7-yl)oxy)nonyl)piperazin-1-yl)-2-oxoethoxy)phenyl)dihydropyrimidine-2,4(1H,3H)-dione], the IC50 with Lovo (G13D) cells came out at 0.55 µM; in the test on SW480 (G12V) cells it was 0.66 µM; in the test on SW48 (wt) cells, 1.6 µM; in the test on H358 (G12C) cells it was 1.4 µM; with AsPC-1 (G12D) cells, 1.6 µM.

Consider `COc1cc2c(N[C@H](C)c3cccc(Br)c3)nc(C)nc2cc1OCCCCCCCCCCCN1CCN(C(=O)COc2ccc(N3CCC(=O)NC3=O)cc2)CC1` [Compound C3, (R)-1-(4-(2-(4-(11-((4-((1-(3-Bromophenyl)ethyl)amino)-6-methoxy-2-methyl-quinazolin-7-yl)oxy)undecyl)piperazin-1-yl)-2-oxoethoxy)phenyl)dihydropyrimidine-2,4(1H,3H)-dione], for which the IC50 came to 0.93 µM in the test on Lovo (G13D) cells; 0.66 µM in the test on SW480 (G12V) cells; 2.1 µM with SW48 (wt) cells; 3.4 µM in the test on H358 (G12C) cells; 2.1 µM in the test with AsPC-1 (G12D) cells.

`COc1cc2c(N[C@H](C)c3cccc(Br)c3)nc(C)nc2cc1OCCCCCCCN1CCN(C(=O)CNc2ccc3c(C4CCC(=O)NC4=O)nn(C)c3c2)CC1` (stereo partly drawn) [Compound D1, 3-(6-((2-(4-(7-((4-(((R)-1-(3-Bromophenyl)ethyl)amino)-6-methoxy-2-methyl-quinazolin-7-yl)oxy)heptyl)piperazin-1-yl)-2-oxoethyl)amino)-1-methyl-1H-indazol-3-yl)-piperidine-2,6-dione]: the IC50 turned out to be 1.1 µM in the test on Lovo (G13D) cells, 1.4 µM with SW480 (G12V) cells, 1.8 µM in the test with SW48 (wt) cells and 2.9 µM in the test on H358 (G12C) cells.

Consider `COc1cc2c(N[C@H](C)c3cccc(Br)c3)nc(C)nc2cc1OCCCCCCCCCN1CCN(C(=O)CNc2ccc3c(C4CCC(=O)NC4=O)nn(C)c3c2)CC1` (stereo partly drawn) [Compound D2, 3-(6-((2-(4-(9-((4-(((R)-1-(3-bromophenyl)ethyl)amino)-6-methoxy-2-methylquinazolin-7-yl)oxy)nonyl)piperazin-1-yl)-2-oxoethyl)amino)-1-methyl-1H-indazol-3-yl)piperidine-2,6-dione], for which the IC50 in the test with Lovo (G13D) cells was 0.55 µM; in the test with SW480 (G12V) cells, 0.97 µM; with SW48 (wt) cells, 1.2 µM; in the test with H358 (G12C) cells, 1.7 µM.

On to `COc1cc2c(N[C@H](C)c3cccc(Br)c3)nc(C)nc2cc1OCCCCCCCCCCCN1CCN(C(=O)CNc2ccc3c(C4CCC(=O)NC4=O)nn(C)c3c2)CC1` (stereo partly drawn) [Compound D3, 3-(6-((2-(4-(11-((4-(((R)-1-(3-Bromophenyl)ethyl)amino)-6-methoxy-2-methyl-quinazolin-7-yl)oxy)undecyl)piperazin-1-yl)-2-oxoethyl)amino)-1-methyl-1H-indazol-3-yl)-piperidine-2,6-dione], for which the IC50 with Lovo (G13D) cells was 0.64 µM; in the test on SW480 (G12V) cells, 0.61 µM; in the test with SW48 (wt) cells it was 0.48 µM; in the test on H358 (G12C) cells it was 1.4 µM.

`COc1cc2c(N[C@H](C)c3cccc(Br)c3)nc(C)nc2cc1OCCCCCCCN1CCN(C(=O)CNc2cccc3c(C4CCC(=O)NC4=O)nn(C)c23)CC1` (stereo partly drawn) [Compound D4, 3-(7-((2-(4-(7-((4-(((R)-1-(3-Bromophenyl)ethyl)amino)-6-methoxy-2-methyl-quinazolin-7-yl)oxy)heptyl)piperazin-1-yl)-2-oxoethyl)amino)-1-methyl-1H-indazol-3-yl)-piperidine-2,6-dione]: the IC50 in the test with Lovo (G13D) cells worked out at 0.37 µM; in the test with SW480 (G12V) cells, 0.65 µM; in the test with SW48 (wt) cells, 0.85 µM; in the test with H358 (G12C) cells, 1.6 µM.

For the compound `COc1cc2c(N[C@H](C)c3cccc(Br)c3)nc(C)nc2cc1OCCCCCCCCCN1CCN(C(=O)CNc2cccc3c(C4CCC(=O)NC4=O)nn(C)c23)CC1` (stereo partly drawn) [Compound D5, 3-(7-((2-(4-(9-((4-(((R)-1-(3-Bromophenyl)ethyl)amino)-6-methoxy-2-methyl-quinazolin-7-yl)oxy)nonyl)piperazin-1-yl)-2-oxoethyl)amino)-1-methyl-1H-indazol-3-yl)-piperidine-2,6-dione], the IC50 was 0.42 µM in the test on Lovo (G13D) cells, 0.94 µM with SW480 (G12V) cells, 1.5 µM in the test with SW48 (wt) cells and greater than 10 µM in the test with H358 (G12C) cells.

As to `COc1cc2c(N[C@H](C)c3cccc(Br)c3)nc(C)nc2cc1OCCCCCCCCCCCN1CCN(C(=O)CNc2cccc3c(C4CCC(=O)NC4=O)nn(C)c23)CC1` (stereo partly drawn) [Compound D6, 3-(7-((2-(4-(11-((4-(((R)-1-(3-Bromophenyl)ethyl)amino)-6-methoxy-2-methylquinazolin-7-yl)oxy)undecyl)piperazin-1-yl)-2-oxoethyl)amino)-1-methyl-1H-indazol-3-yl)piperidine-2,6-dione], the IC50 was determined as 0.76 µM in the test with Lovo (G13D) cells, 1.7 µM in the test with SW480 (G12V) cells, 2.4 µM with SW48 (wt) cells and 6.4 µM with H358 (G12C) cells.
